Source: patent US20240391931A1 (Bristol-Myers Squibb Company, priority 2021, published 2024)

Columns and labels:
Ba/F3 parental cells = experiment: Cellular proliferation in Ba/F3 parental (IL3-dependent) cells; type: cell-based, murine; conditions: Mus musculus, BaF3
Description: (§1) Engineered lines expressing HER2YVMA and HER2 WT were prepared in HEK293 (human embryonic kidney cells), Ba/F3 (Interleukin 3 (IL3)-dependent murine pro B cell line), and BEAS2B (primary immortalized human bronchial epithelial cell line). Ba/F3, BEAS2B, and HEK293 cells were obtained from the American Type Culture Collection (ATCC, Manassas, VA). Parental Ba/F3 cells were grown in suspension in complete RPMI 1640 supplemented with 10% FBS and 1% P/S and 10 ng/ml interleukin 3 (IL3, Sigma-Aldrich). Hek293 and BEAS2B cells were grown as monolayers in DMEM supplemented with 10% FBS and 1% P/S. All cells were maintained and propagated in a humidified 5% CO2 incubator at 37° C.
(§2) Cell proliferation in non-adherent cells was investigated in Ba/F3 parental (IL3-dependent) and in the two IL3 independent cell clones tranduced to express mutant HER2 protein containing the YVMA insertion (Ba/F3 HER2YVMA). Cells were plated in DMEM supplemented with 10% FBS, 1% P/S, and 10 ng/ml IL3 (for parental Ba/F3 only) in 96-well white clear-bottom tissue culture plates (Costar, Sigma-Aldrich) at a starting cell density of 7500 cells. An 8-point standard curve with varying cell densities (starting at 100,000 cells and serially diluting down 2-fold) was prepared for each cell line and read after plating. Compound solutions were prepared in serum free media, and cells were treated as described above for adherent cells. Cell viability was determined by CellTiter Glo (Promega, Madison, WI) after 72 h. The results were converted to cell numbers using a standard curve; growth inhibition (GI50 values) were determined by Graph Pad Prism.
(§3) The results of these experiments show the ability of compounds to inhibit cell growth in HER2 dependent cell lines and a control cell line (Ba/F3 parental) are depicted in Table 4 in the columns titled “G150 (nM)”. Ba/F3 parental results fall under the heading “Ba/F3 parental-G150”, and Ba/F3 HER2YVMA fall under the heading “Ba/F3 YVMA-G150”.

Ba/F3 HER2YVMA cells = experiment: Cellular proliferation in Ba/F3 HER2YVMA cells; type: cell-based, murine; conditions: Mus musculus, BaF3, read-out: Ba/F3 YVMA GI50
Description: as §1
(§4) To generate Ba/F3, BEAS2B, and Hek-293 cells engineered with lentivirus to express HER2 WT or HER2YVMA, the cells were transduced with lentiviruses at multiplicity of infection (MOI) of 1 or 10; transduced cells were selected and maintained with G418 ([…]) (Geneticin, Life Technologies, Carlsbad, CA). Ba/F3 engineered cells were subjected to gradual withdrawal of interleukin 3 (IL-3, Sigma-Aldrich). After selection, IL3 independent Ba/F3 HER2YVMA, and BEAS2B HER2YVMA cells were cloned by limiting dilution. Hek293 HER2YVMA cells were used as pool. HER2 and phospho HER2 levels were confirmed by flow cytometery and immunoassay (MSD, Meso-Scale Discovery, Rockville, Maryland).
as §2, §3

HER2YVMA = HER2YVMA (Homo sapiens, UniProt P04626, INS775YVMA); experiment: HER2 signaling (pHER2) in Ba/F3-HER2YVMA cells; type: cell-based; parameters: expressed in transfected cells; host or cells: HEK293 (pool), Ba/F3 (clones), BEAS2B (clones); lentiviral vector pCDH-CMV-MCS-EF1-Neo; conditions: read-out: Ba/F3 YVMA pHER2 EC50
Chain of HER2YVMA (P04626 with tags, fused parts or gaps INS775YVMA): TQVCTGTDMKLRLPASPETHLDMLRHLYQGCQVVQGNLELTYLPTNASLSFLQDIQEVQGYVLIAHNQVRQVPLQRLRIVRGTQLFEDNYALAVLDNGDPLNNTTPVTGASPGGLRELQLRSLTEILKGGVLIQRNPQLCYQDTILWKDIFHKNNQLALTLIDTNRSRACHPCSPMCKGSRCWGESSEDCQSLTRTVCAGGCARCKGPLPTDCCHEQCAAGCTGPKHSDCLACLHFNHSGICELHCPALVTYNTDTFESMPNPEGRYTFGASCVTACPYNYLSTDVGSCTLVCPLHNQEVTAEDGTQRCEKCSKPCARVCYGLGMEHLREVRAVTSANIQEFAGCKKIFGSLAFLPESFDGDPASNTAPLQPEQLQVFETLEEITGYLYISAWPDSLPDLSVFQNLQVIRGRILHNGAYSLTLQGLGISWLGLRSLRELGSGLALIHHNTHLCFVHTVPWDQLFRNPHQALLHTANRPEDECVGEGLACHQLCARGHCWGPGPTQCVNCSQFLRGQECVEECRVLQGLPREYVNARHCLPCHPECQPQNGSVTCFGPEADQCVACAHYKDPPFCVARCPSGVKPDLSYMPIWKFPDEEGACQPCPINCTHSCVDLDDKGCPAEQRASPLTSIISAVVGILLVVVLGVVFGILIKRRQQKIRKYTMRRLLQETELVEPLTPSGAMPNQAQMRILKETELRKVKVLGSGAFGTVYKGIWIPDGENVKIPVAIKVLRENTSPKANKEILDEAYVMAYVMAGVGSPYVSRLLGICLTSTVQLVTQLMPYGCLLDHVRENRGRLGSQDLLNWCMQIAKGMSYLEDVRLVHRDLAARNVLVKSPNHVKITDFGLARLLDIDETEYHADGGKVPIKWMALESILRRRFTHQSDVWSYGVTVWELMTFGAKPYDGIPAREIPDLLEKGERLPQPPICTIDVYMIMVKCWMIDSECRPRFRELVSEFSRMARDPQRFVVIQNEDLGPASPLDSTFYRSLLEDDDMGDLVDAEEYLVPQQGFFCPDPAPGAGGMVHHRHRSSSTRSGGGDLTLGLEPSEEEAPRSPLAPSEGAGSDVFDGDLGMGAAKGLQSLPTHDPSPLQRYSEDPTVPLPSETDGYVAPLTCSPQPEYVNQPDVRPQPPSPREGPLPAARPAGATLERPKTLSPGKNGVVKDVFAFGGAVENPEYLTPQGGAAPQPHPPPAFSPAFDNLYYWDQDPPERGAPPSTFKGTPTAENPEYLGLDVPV
Description: Cell culture, plasmid cloning, and lentiviral transduction were carried out according to standard procedures. The Human HER2 cDNA construct in pCMV6-Entry for the HER2 wildtype (WT) expression was obtained from Origene. The HER2 cDNA including the 12-nucleotide insertion corresponding to YVMA insertion (HER2YVMA) was codon optimized, synthesized and cloned by GenScript (Piscataway, NJ) in pcDNA3.1. The lentiviral constructs expressing HER2YVMA and HER2 WT were sub-cloned using PCR at System Biosciences (SBI, Mountainview, CA) into lentiviral vectors pCDH-CMV-MCS-EF1-Neo and lentiviral particles were generated.
as §1, §4
Compound treatment of Ba/F3-HER2YVMA suspension cells was done as described with minor modifications. Cells were plated at 300000 cell/well in 96-well round bottom plates in RPMI supplemented with 2% FBS and immediately dosed with compounds serially diluted in media without serum for a final concentration of 1% FBS, 0.1% DMSO. Cells were incubate with compounds for 1.5 hr, and plates were spun at 1500 rpm for 5 mins to remove media without disturbing pellet. Cells were lysed as described above.
HER2 signaling was evaluated using phospho (Tyr1248)/total ErbB2 whole cell lysate MSD plates (Meso-Scale Discovery, Gaithersburg, MD). The phospho HER2 signal was normalized to total HER2 for each sample; results are reported as % DMSO control. The normalized data was fitted using a sigmoidal curve analysis program (Graph Pad Prism version 6) with variable Hill slope to determine EC50 values.
The HER2 signaling results are provided in Table 4, under columns titled “BT474-pHER2 EC50”, “N87-pHER2 EC50”, and “NCI-H1781-pHER2 EC50”. Hek293-HER2YVMA ins fall under the heading “HEKYVMA-pHER2 EC50”, Ba/F3 HER2YVMA fall under the heading “Ba/F3 YVMA-pHER2 EC50” and BEAS2B-HER2YVMA fall under the heading “BEAS2B YVMA-pHER2 EC50”.

Row | Structure (SMILES) | GI50 (Ba/F3 parental cells) [nM] | GI50 (Ba/F3 HER2YVMA cells) [nM] | EC50 (HER2YVMA) [nM]
1 | Cc1ccc(Oc2ccc(Nc3ncnc4sc5c(c34)C(C)CN(C(=O)C=CCN(C)C)C5)cc2C)cn1 (single isomer, unassigned) [Compound 106] | 1000 to 10000 | < 100 | –
2 | CN(C)C/C=C/C(=O)N1CCc2c(sc3ncnc(Nc4ccc(Oc5ccc6ncnn6c5)c(Cl)c4)c23)C1 [Compound 5, (E)-1-(4-((4-([1,2,4]triazolo[1,5-a]pyridin-6-yloxy)-3-chlorophenyl)amino)-5,8-dihydropyrido[4′,3′:4,5]thieno[2,3-d]pyrimidin-7(6H)-yl)-4-(dimethylamino)but-2-en-1-one] | – | – | < 100
3 | Cc1ccc(Oc2ccc(Nc3ncnc4sc5c(c34)CCN(C(=O)/C=C/CN(C)C(C)(C)C)C5)cc2C)cn1 [Compound 33] | 1000 to 10000 | < 100 | < 100
4 | Cc1ccc(Oc2ccc(Nc3ncnc4sc5c(c34)CCN(C(=O)/C=C/CN3CC4C(CO)C4C3)C5)cc2C)cn1 (stereo not shown) [Compound 34] | 1000 to 10000 | < 100 | < 100
5 | COc1ccc(Oc2ccc(Nc3ncnc4sc5c(c34)CCN(C(=O)/C=C/CN(C)C)C5)cc2C)cn1 [Compound 95, (E)-4-(Dimethylamino)-1-(4-((4-((6-methoxypyridin-3-yl)oxy)-3-methylphenyl)amino)-5,6-dihydropyrido[4′,3′:4,5]thieno[2,3-d]pyrimidin-7(8H)-yl)but-2-en-1-one] | 1000 to 10000 | < 100 | –
6 | Cc1ccc(Oc2ccc(Nc3ncnc4sc5c(c34)CN(C(=O)/C=C/CN(C)C)C5)cc2C)cn1 [Compound 99, (E)-4-(dimethylamino)-1-(4-((3-methyl-4-((6-methylpyridin-3-yl)oxy)phenyl)amino)-5,7-dihydro-6H-pyrrolo[3′,4′:4,5]thieno[2,3-d]pyrimidin-6-yl)but-2-en-1-one] | 1000 to 10000 | < 100 | –
